Assay results reported in patent US9745295B2, “Thiazole-substituted aminoheteroaryls as spleen tyrosine kinase inhibitors” (Merck Sharp & Dohme Corp., priority 2013, dated 2017).

Molecular target: T1, recombinant human GST-SYK (Homo sapiens, UniProt P43405)
T1 construct: purchased Carna Biosciences 08-176
Assay: Homogeneous Time-Resolved Fluorescence (HTRF) assay for the recombinant human Syk enzyme
Type: biochemical
Conditions: recombinant human GST-SYK 5 pM, ATP 25 μM, read-out: rhSYK IC50
Protocol: Homogeneous Time-Resolved Fluorescence (HTRF) Assay for the Recombinant Human Syk Enzyme
A recombinant GST-hSYK fusion protein was used to measure potency of compounds to inhibit human Syk activity. The recombinant human GST-SYK (Carna Biosciences #08-176) (5 pM final concentration) was incubated with various concentrations of the inhibitor diluted in DMSO (0.1% final concentration) for 10 minutes at room temperature in 15 mM Tris-HCl (pH 7.5), 0.01% tween 20, 2 mM DTT in 384 well plate format. To initiate the reaction the biotinylated substrate peptide (250 nM final concentration) that contains the phosphorylation site for Syk was added with magnesium (5 mM final concentration) and ATP (25 μM final concentration). Final volume of the reaction was 10 μL. Phosphorylation of the peptide was allowed to proceed for 45′ at room temperature. To quench the reaction and detect the phosphorylated product, 2 nM of a Europium-anti-phosphotyrosine antibody (Perkin Elmer #AD0161) and 70 nM SA-APC (Perkin-Elmer #CR130-100) were added together in 15 mM Tris pH 7.5, 40 mM EDTA, 0.01% tween 20. Final volume of the quenching solution was 10 μL.
The resulting HTRF signal was measured after 30 minutes on an EnVision (Perkin-Elmer) reader using a time-resolved fluorescence protocol. Table A below lists activities as IC50 values (nM) for representative compounds of the invention.

IC50 [nM]	Compound
0.562	Cc1cc(Nc2cc(C(F)(F)F)ncn2)nc(-c2cnc(C3(O)CCC(C(N)=O)C(C)(C)C3)s2)c1 (single isomer, unassigned) [Example 3.5, (1S,4R or 1R,4S)-4-hydroxy-2,2-dimethyl-4-[5-(4-methyl-6-{[6-(trifluoromethyl)pyrimidin-4-yl]amino}pyridin-2-yl)-1,3-thiazol-2-yl]cyclohexanecarboxamide]
22.1	Cc1cc(Nc2nccc(C)n2)cc(-c2cnc([C@@]3(O)CC[C@H](C(=O)O)C(C)(C)C3)s2)n1 (single isomer, unassigned) [Example 4.3, (1S,4R or 1R, 4S)-4-hydroxy-2,2-dimethyl-4-(5-{6-methyl-4-[(4-methylpyrimidin-2-yl)amino]pyridin-2-yl}-1,3-thiazol-2-yl)cyclohexanecarboxylic acid]
73.6	CCCCOC(=O)[C@H]1CC[C@H](C(C)(O)c2ncc(-c3cc(Nc4nccc(OC)n4)cc(C)n3)s2)CC1 (single isomer, unassigned) [Example 4.7, butyl (trans)-4-((R or S)-1-hydroxy-1-(5-{4-[(4-methoxypyrimidin-2-yl)amino]-6-methylpyridin-2-yl}-1,3-thiazol-2-yl)ethyl]cyclohexane carboxylate]
17.6	COC(=O)c1ccc2c(c1)CCCC2(O)c1ncc(-c2cc(Nc3nccc(C(F)(F)F)n3)cc(C)n2)s1 (single isomer, unassigned) [Example 4.24, (R or S)-methyl 5-hydroxy-5-[5-(6-methyl-4-{[4-(trifluoromethyl)pyrimidin-2-yl]amino}pyridin-2-yl)-1,3-thiazol-2-yl]-5,6,7,8-tetrahydronaphthalene-2-carboxylate]
0.516	Cc1cc(Nc2cc(C(F)(F)F)ncn2)nc(-c2cnc(C3(O)CCCc4cc(C(=O)O)ccc43)s2)c1 (single isomer, unassigned) [Example 2.7, (R or S)-5-hydroxy-5-[5-(4-methyl-6-{[6-(trifluoromethyl)pyrimidin-4-yl]amino}pyridin-2-yl)-1,3-thiazol-2-yl]-5,6,7,8-tetrahydronaphthalene-2-carboxylic acid]
2.5	COc1cc(Nc2cc(C)cc(-c3cnc([C@@]4(O)CC[C@H](C(N)=O)C(C)(C)C4)s3)n2)ncn1 (single isomer, unassigned) [Example 3.1, (1S,4R or 1R,4S)-4-Hydroxy-4-(5-{6-[(6-methoxypyrimidin-4-yl)amino]-4-methylpyridin-2-yl}-1,3-thiazol-2-yl)-2,2-dimethylcyclohexanecarboxamide]
4.13	COc1ncc(Nc2nccc(C(F)(F)F)n2)cc1-c1cnc([C@@]2(O)CC[C@H](C(=O)O)C(C)(C)C2)s1 (single isomer, unassigned) [Example 4.19, (1S,4R or 1R,4S)-4-hydroxy-4-[5-(2-methoxy-5-{[4-(trifluoromethyl)pyrimidin-2-yl]amino}pyridin-3-yl)-1,3-thiazol-2-yl]-2,2-dimethylcyclohexane carboxylic acid]
4200	Cc1cc(Nc2cncc(C(F)(F)F)n2)cc(-c2cnc(C3(O)CCC(C(=O)O)C(C)(C)C3)s2)c1 (single isomer, unassigned) [Example 2.4, (1S,4R or 1R,4S)-4-hydroxy-2,2-dimethyl-4-[5-(3-methyl-5-{[6-(trifluoromethyl)pyrazin-2-yl]amino}phenyl)-1,3-thiazol-2-yl]cyclohexane-carboxylic acid]
4.4	Cc1cc(Nc2ncc(F)c(C)n2)cc(-c2cnc(C(C)(O)[C@H]3CC[C@H](C(=O)O)CC3)s2)n1 (single isomer, unassigned) [Example 4.20, (trans)-4-((R or S)-1-(5-{4-[(5-fluoro-4-methylpyrimidin-2-yl)amino]-6-methylpyridin-2-yl}-1,3-thiazol-2-yl)-1-hydroxyethyl]cyclo-hexanecarboxylic acid]
0.517	CC1(C)CC(O)(c2ncc(-c3cccc(Nc4cc(C(F)(F)F)ncn4)n3)s2)CCC1C(=O)O (single isomer, unassigned) [Example 3.6, (1S,4R or 1R,4S)-4-hydroxy-2,2-dimethyl-4-[5-(6-{[6-(trifluoromethyl)pyrimidin-4-yl]amino}pyridin-2-yl)-1,3-thiazol-2-yl]cyclohexanecarboxylic acid]
52.3	Cc1cc(Nc2ncnc(C)n2)cc(-c2cnc([C@@]3(O)CC[C@H](C(=O)O)C(C)(C)C3)s2)c1 [Example 2.2, (1S,4R)-4-hydroxy-2,2-dimethyl-4-(5-{3-methyl-5-[(4-methyl-1,3,5-triazin-2-yl)amino]phenyl}-1,3-thiazol-2-yl)cyclohexanecarboxylic acid]
2.32	COc1cc(Nc2cc(C)cc(-c3cnc(C4(O)CCC(C(=O)O)C(C)(C)C4)s3)n2)ncn1 (single isomer, unassigned) [Example 3.4, (1S,4R or 1R,4S)-4-hydroxy-4-(5-{6-[(6-methoxypyrimidin-4-yl)amino]-4-methylpyridin-2-yl}-1,3-thiazol-2-yl)-2,2-dimethylcyclohexane-carboxylic acid]
4.39	Cc1cc(Nc2cc(C(F)(F)F)ccn2)nc(-c2cnc(C3(O)CCC3)s2)n1 [Example 4.5, 1-[5-(4-methyl-6-{[4-(trifluoromethyl)pyridin-2-yl]amino}pyrimidin-2-yl)-1,3-thiazol-2-yl]cyclobutanol]
0.0649	CCc1cc(Nc2cc(C)cc(-c3cnc(C4(O)CCCc5cc(C(=O)O)ccc54)s3)n2)ncn1 (single isomer, unassigned) [Example 2.11, (R or S)-5-(5-{6-[(6-ethylpyrimidin-4-yl)amino]-4-methylpyridin-2-yl}-1,3-thiazol-2-yl)-5-hydroxy-5,6,7,8-tetrahydronaphthalene-2-carboxylic acid]
0.594	COc1ccnc(Nc2cc(C)nc(-c3cnc(C(C)(O)[C@H]4CC[C@H](C(=O)O)CC4)s3)c2)n1 (single isomer, unassigned) [Example 4.9, (trans)-4-((R or S)-1-hydroxy-1-(5-{4-[(4-methoxypyrimidin-2-yl)amino]-6-methylpyridin-2-yl}-1,3-thiazol-2-yl)ethyl]cyclohexane carboxylic acid]

Second part, the compound before the results:

Compound	IC50 [nM]
Cc1cc(Nc2nccc(C(F)(F)F)n2)cc(-c2cnc(C(C)(O)c3ccc(C(=O)O)cc3)s2)n1 (single isomer, unassigned) [Example 1.21, (R or S)-4-(1-hydroxy-1-(5-(6-methyl-4-((4-(trifluoromethyl)pyrimidin-2-yl)amino)pyridin-2-yl)thiazol-2-yl)ethyl)benzoic acid]	5.91
Cc1cc(Nc2cc(C(F)(F)F)ncn2)nc(-c2cnc([C@@]3(O)CC[C@H](C(N)=O)[C@H](C)C3)s2)c1 (relative stereo) [Example 1.19, rel-(1S,2R,4R or S)-4-hydroxy-2-methyl-4-[5-(4-methyl-6-{[6-(trifluoromethyl)pyrimidin-4-yl]amino}pyridin-2-yl)-1,3-thiazol-2-yl]cyclohexane-carboxamide]	0.42
COC(=O)C1CCC(O)(c2ncc(-c3cc(Nc4nccc(OC(C)C)n4)cc(C)n3)s2)CC1(C)C (stereo not shown) [Example 1.15, methyl 4-hydroxy-2,2-dimethyl-4-[5-(6-methyl-4-{[4-(1-methylethoxy)pyrimidin-2-yl]amino}pyridin-2-yl)-1,3-thiazol-2-yl] cyclohexane-carboxylate]	10.4
Cc1cc(Nc2cc(C(F)(F)F)ncn2)nc(-c2cnc(C3(O)CCC(C(=O)O)C(C)(C)C3)s2)c1 (single isomer, unassigned) [Example 1.6, (1S,4R or 1R,4S)-4-hydroxy-2,2-dimethyl-4-[5-(4-methyl-6-{[6-(trifluoromethyl)pyrimidin-4-yl]amino}pyridin-2-yl)-1,3-thiazol-2-yl] cyclohexane-carboxylic acid]	0.441
Cc1cc(Nc2cc(C(F)(F)F)ccn2)nc(-c2cnc(C3(O)CCC(C(=O)O)C(C)(C)C3)s2)n1 (single isomer, unassigned) [Example 1.11, (1S,4R or 1R,4S)-4-hydroxy-2,2-dimethyl-4-[5-(4-methyl-6-{[4-(trifluoromethyl)pyridin-2-yl]amino}pyrimidin-2-yl)-1,3-thiazol-2-yl] cyclohexane-carboxylic acid]	0.123
Cc1cc(Nc2cc(C(F)(F)F)ncn2)nc(-c2cnc(C3(O)CCC(C(N)=O)C(C)C3)s2)c1 (single isomer, unassigned) [Example 1.18, rel-(1S,2R,4R or S)-4-hydroxy-2-methyl-4-[5-(4-methyl-6-{[6-(trifluoromethyl)pyrimidin-4-yl]amino}pyridin-2-yl)-1,3-thiazol-2-yl] cyclohexane-carboxamide]	1.52
Cc1cc(Nc2cc(C(F)(F)F)ccn2)nc(-c2cnc(C3(O)CCC(C(=O)O)C(C)(C)C3)s2)n1 (single isomer, unassigned) [Example 1.12, (1S,4R or 1R,4S)-4-hydroxy-2,2-dimethyl-4-[5-(4-methyl-6-{[4-(trifluoromethyl)pyridin-2-yl]amino}pyrimidin-2-yl)-1,3-thiazol-2-yl]cyclohexane-carboxylic acid]	0.698
